Test results reported in PMC9919983, “Screening Evaluation of Antiproliferative, Antimicrobial and Antioxidant Activity of Lichen Extracts and Secondary Metabolites In Vitro” (Plants, 2023).

Tests used:
[1] = set-up: method as in PMID 35448805; conditions: pure compounds, compared to ascorbic acid; cited from earlier work
[2] = DPPH radical scavenging assay; conditions: 30 min, absorbance 517 nm
Description: The free radical scavenging activity of lichen extracts was measured using 1,1-diphenyl-2-picryl-hydrazil (DPPH). The antioxidant activity via this method is described in several studies and here it is slightly modified. The extracts were dissolved in a small amount of pure DMSO and then filled with distilled water to a concentration of 1 mg/mL. In addition, 10 μL of 5% NaOH solution was added to help dissolve the extracts fully. Stock solutions were subsequently diluted to the desired concentrations. The reaction mixture consisted of 2 mL of DPPH methanolic solution (0.1 mM) and 1 mL of our extracts to reach a final volume of 3 mL. The samples were incubated at laboratory temperature in the dark for 30 min. After the incubation, the absorbance of the samples was measured at 517 nm in a spectrophotometer (multi-detection microplate reader; Synergy HT, BioTek, Winooski, VT, USA). Ascorbic acid was used as positive control. A solution of 5% DMSO (1 mL) in MeOH (2 mL) was used as a blank control. The DPPH radical concentration was calculated by the equation:Free radical scavenging activity (%) = [(A0 − A1)/A)] × 100(2) where A0 was the absorbance of negative control and A1 was the absorbance of the reaction mixture of our samples.

[3] = test system: Jurkat; assay: Resazurin screening assay, 2D suspension culture; assay type: cell-based, human; conditions: Jurkat (Leukemia), 72 h, secondary metabolites and cisplatin
Description: (§1) All experiments were performed in triplicate.

[4] = test system: COS-7; assay: Resazurin screening assay, 3D spheroids; assay type: cell-based; conditions: COS-7 (Kidney Fibroblasts), non-cancerous, 72 h, secondary metabolites and cisplatin
Description: as §1

[5] = test system: COS-7; assay: Resazurin screening assay, 2D culture; assay type: cell-based; conditions: COS-7 (Kidney Fibroblasts), non-cancerous, 72 h, secondary metabolites and cisplatin
Description: as §1

[6] = test system: HeLa; assay: Resazurin screening assay, 3D spheroids; assay type: cell-based, human; conditions: HeLa (Cervix), 72 h, secondary metabolites and cisplatin
Description: as §1

[7] = test system: BLM; assay: Resazurin screening assay, 3D spheroids; assay type: cell-based, human; conditions: BLM (Melanoma), 72 h, secondary metabolites and cisplatin
Description: as §1

[8] = test system: MCF-10A; assay: Resazurin screening assay, 3D spheroids; assay type: cell-based, human; conditions: MCF-10A (Breast Epithelial), non-cancerous, 72 h, secondary metabolites and cisplatin
Description: as §1

[9] = test system: HCT116; assay: Resazurin screening assay, 3D spheroids; assay type: cell-based, human; conditions: HCT116 (Colon), 72 h, secondary metabolites and cisplatin
Description: as §1

[10] = test system: Jurkat; assay: Resazurin screening assay, 3D spheroids; assay type: cell-based, human; conditions: Jurkat (Leukemia), 72 h, secondary metabolites and cisplatin
Description: as §1

[11] = test system: A549; assay: Resazurin screening assay, 3D spheroids; assay type: cell-based, human; conditions: A549 (Lung), 72 h, secondary metabolites and cisplatin
Description: as §1

[12] = test system: MDA-MB-231; assay: Resazurin screening assay, 3D spheroids; assay type: cell-based, human; conditions: MDA-MB-231 (Breast ER−), 72 h, secondary metabolites and cisplatin
Description: as §1

[13] = test system: A2780; assay: Resazurin screening assay, 3D spheroids; assay type: cell-based, human; conditions: A2780 (Ovarian), 72 h, secondary metabolites and cisplatin
Description: as §1

[14] = test system: BJ-5ta; assay: Resazurin screening assay, 3D spheroids; assay type: cell-based, human; conditions: BJ-5ta (Skin Fibroblasts), non-cancerous, 72 h, secondary metabolites and cisplatin
Description: as §1

[15] = test system: MCF-7; assay: Resazurin screening assay, 3D spheroids; assay type: cell-based, human; conditions: MCF-7 (Breast ER+), 72 h, secondary metabolites and cisplatin
Description: as §1

[16] = test system: HeLa; assay: Resazurin screening assay, 2D culture; assay type: cell-based, human; conditions: HeLa (Cervix), 72 h, secondary metabolites and cisplatin
Description: as §1

[17] = test system: BLM; assay: Resazurin screening assay, 2D culture; assay type: cell-based, human; conditions: BLM (Melanoma), 72 h, secondary metabolites and cisplatin
Description: as §1

[18] = test system: MCF-10A; assay: Resazurin screening assay, 2D culture; assay type: cell-based, human; conditions: MCF-10A (Breast Epithelial), non-cancerous, 72 h, secondary metabolites and cisplatin
Description: as §1

[19] = test system: HCT116; assay: Resazurin screening assay, 2D culture; assay type: cell-based, human; conditions: HCT116 (Colon), 72 h, secondary metabolites and cisplatin
Description: as §1

[20] = test system: A549; assay: Resazurin screening assay, 2D culture; assay type: cell-based, human; conditions: A549 (Lung), 72 h, secondary metabolites and cisplatin
Description: as §1

[21] = test system: MDA-MB-231; assay: Resazurin screening assay, 2D culture; assay type: cell-based, human; conditions: MDA-MB-231 (Breast ER−), 72 h, secondary metabolites and cisplatin
Description: as §1

[22] = test system: A2780; assay: Resazurin screening assay, 2D culture; assay type: cell-based, human; conditions: A2780 (Ovarian), 72 h, secondary metabolites and cisplatin
Description: as §1

[23] = test system: BJ-5ta; assay: Resazurin screening assay, 2D culture; assay type: cell-based, human; conditions: BJ-5ta (Skin Fibroblasts), non-cancerous, 72 h, secondary metabolites and cisplatin
Description: as §1

[24] = test system: MCF-7; assay: Resazurin screening assay, 2D culture; assay type: cell-based, human; conditions: MCF-7 (Breast ER+), 72 h, secondary metabolites and cisplatin
Description: as §1

[25] = test system: Staphyloccocus aureus CCM 4223; assay: Agar well-diffusion method; assay type: cell-based; conditions: pure compound 0.57 mM

For `COC(=O)c1c(C)cc(OC(=O)c2c(C)cc(O)c(C=O)c2O)c(C)c1O` [A, atranorin], the “free radical scavenging activity in DPPH assay (in words)” value (shortened to “free radical scavenging activity”) [1] is given as “None of the tested compounds showed notable free radical scavenging activity”.

In the case of `O=C1O[C@H]([C@@H](O)CO)C(O)=C1O` [Ascorbic acid], the “IC50 by DPPH radical scavenging assay” value [2] is reported as 7.7 ± 0.4 µg/mL.

In the case of `N.N.[Cl][Pt][Cl]` [CisPt, cisplatin], the IC50 [3] is reported as 6.3 µM, the IC50 [4] is reported as 154 µM and the IC50 [5] is reported as 24.6 µM. It also gave an IC50 [6] of 78 µM, an IC50 [7] of 89.9 µM and an IC50 [8] of 121 µM. For the same molecule, the IC50 [9] was 98.4 µM, the IC50 [10] was 6.7 µM and the IC50 [11] was 119 µM. It also gave an IC50 [12] of 75.4 µM, an IC50 [13] of 134 µM and an IC50 [14] of 186 µM. The IC50 [15] was 78.3 µM, the IC50 [16] was 35.4 µM and the IC50 [17] was 29.5 µM. For the same molecule, the IC50 [18] was 25.9 µM, the IC50 [19] was 7.4 µM and the IC50 [20] was 23.5 µM. For the same molecule, the IC50 [21] was 7.1 µM, the IC50 [22] was 9.3 µM and the IC50 [23] was 37.9 µM. The IC50 [24] was 29.7 µM.

In the case of `COc1cc(C)c(C(=O)Oc2cc(C)c(C(=O)O)c(O)c2)c(O)c1` [EA, evernic acid], the “free radical scavenging activity” value [1] is given as “None of the tested compounds showed notable free radical scavenging activity”.

In the case of `Cc1cc(OC(=O)c2c(C)cc(OC(=O)c3c(C)cc(O)cc3O)cc2O)cc(O)c1C(=O)O` [GA, gyrophoric acid], the “free radical scavenging activity” value [1] is listed as “None of the tested compounds showed notable free radical scavenging activity”.

In the case of `CCCCCC(=O)Cc1cc(O)cc2c1C(=O)Oc1cc(O)c(C(=O)O)c(CCCCC)c1O2` [Phy, physodic acid], the “effectiveness among the chosen secondary metabolites (in words)” value [25] is given as “most effective”, the “% RIZD S. aureus” value ([25]; relative inhibition zone diameter vs gentamicin 50 µg/mL) is given as 118.78% and the “free radical scavenging activity” value [1] is given as “None of the tested compounds showed notable free radical scavenging activity”.
